Reference: article PMC10945555, “Improving Activity of New Arylurea Agents against Multidrug-Resistant and Biofilm-Producing Staphylococcus epidermidis” (ACS Medicinal Chemistry Letters, 2024)

Assay: Microsomal stability assay
Details: RLM, 60 min of incubation
Experimental: were treated with 100 μL of tested compound at the final concentration of 200 μM, and incubated at 37 °C for 1 h. Triton X-100 (2%) and PBS were used as positive and negative controls, respectively. After centrifugation at 3000 rpm for 3 min, 100 μL of the supernatants were transferred to a 96 well microtiter plate and the hemoglobin release was determined in a SpectraMax iD3 reader (Molecular Devices) by absorption at 540 nm.
2.3.4 Microsomal stability assay […]
following previously reported procedures.7 Tested compound was preincubated at 37 °C in a phosphate buffer (pH 7.4), containing rat liver microsomes (Sigma-Aldrich, Germany), at the concentration of 0.4 mg/mL. After 10 min, NADPH-regenerating system was added to initiate the reaction. At appropriate time points (0, 30 and 60 min), reaction was quenched with ice-cold methanol, containing the internal standard pentoxiphylline. Next samples were centrifuged and the supernatant was subjected to UPLC-MS analysis. From slope of the line on plot Ln (%remaining of parent compounds) vs time, t1/2 was determined. Clint was calculated from […]
experiment was run in duplicate. The metabolized drug verapamil was used as positive control […]
provided by Molecular Discovery Ltd. (Hertfordshire, UK). A highest probability of metabolic sites and metabolite structures were analysed by liver computational model. 8 […]

O=C(Nc1cccc(Cl)c1)NC1CCN(CCC(Oc2ccc(C(F)(F)F)cc2)c2cccs2)CC1 (stereo not shown) [Compound 25]
Clin: 26.7
